Results from patent US4364958A, “1-Substituted-3-cycloalkyl-sulfonyl-pyrrolidine-2,5-dione derivatives and fungicidal compositions thereof” (Chinoin Gyogyszer es Vegyeszeti Termekek Gyara Rt., priority 1979, dated 1982).
Converted amounts (≈) assume the structure as drawn. Like-named read-outs stand apart in the source and are kept apart here.

Experiments:
[1] = tested on: Fusarium culmorum DSM.11425; test: minimal inhibitory concentration in Sabouraud medium; type: cell-based
Excerpt: Fusarium culmorum DSM.11425
(§1) As a medium Saboroud medium was employed.

[2] = tested on: Fusarium monoliforme DSM.11778; test: as above; type: cell-based; conditions: for MIC: Fusarium
Excerpt: Fusarium monoliforme DSM.11778
as §1

[3] = tested on: Trichophyton rubrum CBS.30338; test: as above; type: cell-based; conditions: Trichophyton rubrum
Excerpt: Trichophyton rubrum CBS.30338
as §1

[4] = tested on: Fusarium graminocorum DSM.11802; test: as above; type: cell-based
Excerpt: Fusarium graminocorum DSM.11802
as §1

Candida albicans CBS.562 = test: as above; type: cell-based; conditions: for MIC: Candida albicans
Excerpt: Candida albicans CBS.562 "2"
as §1

Verticillium albo-atrum = test: activity against phytopathogenic fungi; type: cell-based
[5] = tested on: Fusarium oxysporum DSM.10975; test: minimal inhibitory concentration in Sabouraud medium; type: cell-based
Excerpt: Fusarium oxysporum DSM.10975
as §1

[6] = tested on: Aspergillus niger CCM.F-330; test: as above; type: cell-based; conditions: for MIC: Aspergillus niger
Excerpt: Aspergillus niger CCM.F-330
as §1

[7] = tested on: Penicillium chrysogenium CCM.F-362; test: as above; type: cell-based; conditions: for MIC: Penicillium
Excerpt: Penicillium chrysogenium CCM.F-362
as §1

Venturia = test: activity against phytopathogenic fungi; type: cell-based
Botrytis cinerea = test: activity against phytopathogenic fungi; type: cell-based
[8] = tested on: Candida tropicalis CBS.433; test: minimal inhibitory concentration in Sabouraud medium; type: cell-based; conditions: for MIC: Candida tropicalis
Excerpt: Candida tropicalis CBS.433 "3"
as §1

[9] = tested on: Cryptococcus neoform. 78/K16; test: as above; conditions: read-out: minimal inhibitory concentration
Procedure: Sabouraud medium was inoculated with 10^5 /ml. germ number and the propagation of the fungi was examined after 24, 48, 72, 144 and 288 hours incubation time and the minimal inhibitory concentrations were determined.

Cercospora beticola = test: activity against phytopathogenic fungi; type: cell-based
Ascochyta pisi = test: activity against phytopathogenic fungi; type: cell-based
Sclerotinia sclerotiorum = test: activity against phytopathogenic fungi; type: cell-based
[10] = tested on: Sporotrichum schenkii CBS.34035; test: minimal inhibitory concentration in Sabouraud medium; type: cell-based; conditions: 288 hours
Excerpt: Sporotrichum schenkii CBS.34035
as §1

[11] = tested on: Penicillium chrysogenium CBS.19646; test: as above; type: cell-based; conditions: for MIC: Penicillium
Excerpt: Penicillium chrysogenium CBS.19646
as §1

[12] = tested on: Saccharomyces cerevisiae OKI.1282; test: as above; type: cell-based; conditions: for MIC: Saccharomyces cerevisiae
Excerpt: Saccharomyces cerevisiae OKI.1282
as §1

[13] = tested on: Aspergillus fumigatus CBS.11326; test: as above; type: cell-based; conditions: for MIC: Aspergillus fumigatus
Excerpt: Aspergillus fumigatus CBS.11326
as §1

[14] = tested on: Penicillium digitatum CBS.31948; test: as above; type: cell-based; conditions: for MIC: Penicillium digitatum
Excerpt: Penicillium digitatum CBS.31948
as §1

Taphrina deformans = test: activity against phytopathogenic fungi; type: cell-based
[15] = tested on: Epidermophyton floccosum OKI/IV.; test: minimal inhibitory concentration in Sabouraud medium; type: cell-based; conditions: for MIC: Epidermophyton floccosum
Excerpt: Epidermophyton floccosum OKI/IV.
as §1

Phytophtora infestans = type: cell-based
Verticillium dahlise = test: activity against phytopathogenic fungi; type: cell-based
[16] = tested on: Microsporum gypseum ver. vinosum CBS.10064; test: minimal inhibitory concentration in Sabouraud medium; type: cell-based; conditions: Nannizzia gypsea, 72 h
Excerpt: Microsporum gypseum ver. vinosum CBS.10064
as §1

[17] = tested on: Aspergillus flavus CBS.24765; test: as above; type: cell-based; conditions: for MIC: Aspergillus flavus
Excerpt: Aspergillus flavus CBS.24765
as §1

[18] = tested on: Trichophyton mentagrophytes CBS.50148; test: as above; type: cell-based; conditions: for MIC: Trichophyton mentagrophytes
Excerpt: Trichophyton mentagrophytes CBS.50148
as §1

[19] = tested on: Penicillium digitatum CCM.F-382; test: as above; type: cell-based; conditions: for MIC: Penicillium digitatum
Excerpt: Penicillium digitatum CCM.F-382
as §1

Candida krusei 79/K47 = test: as above; conditions: Pichia kudriavzevii, read-out: minimal inhibitory concentration
[20] = tested on: Aspergillus niger CBS.12648; test: as above; type: cell-based; conditions: Aspergillus niger
Excerpt: Aspergillus niger CBS.12648
as §1

SMILES: O=C1CC(S(=O)(=O)C2CCCCC2)C(=O)N1c1ccccc1 (stereo not shown) [1-Phenyl-3-cyclohexyl-sulfonyl-pyrrolidine-2,5-dione]
- MIC ([1]; 72 hours): 50 µg/mL (≈ 156 µM)
- MIC ([1]; 144 hours): 50 µg/mL (≈ 156 µM)
- MIC ([1]; 288 hours): 100 µg/mL (≈ 311 µM)
- minimal inhibitory concentration ([2]; 72 hours): 75 µg/mL (≈ 233 µM)
- minimal inhibitory concentration ([2]; 288 hours): 200 µg/mL (≈ 622 µM)
- MIC ([2]; DSM.11778, 72 h, 72 hours): 100 µg/mL (≈ 311 µM)
- MIC ([2]; DSM.11778, 144 h, 144 hours): 150 µg/mL (≈ 467 µM)
- MIC ([2]; DSM.11778, 288 h, 288 hours): 150 µg/mL (≈ 467 µM)
- MIC ([3]; CBS.30338, 72 h, 72 hours): 2.5 µg/mL (≈ 7.78 µM)
- MIC ([3]; CBS.30338, 144 h, 144 hours): 10 µg/mL (≈ 31.1 µM)
- MIC ([3]; CBS.30338, 288 h, 288 hours): 10 µg/mL (≈ 31.1 µM)
- MIC ([4]; 72 hours): 50 µg/mL (≈ 156 µM)
- MIC ([4]; 144 hours): 100 µg/mL (≈ 311 µM)
- MIC ([4]; 288 hours): 100 µg/mL (≈ 311 µM)
- minimal inhibitory concentration (Candida albicans CBS.562; 24 hours): 50 µg/mL (≈ 156 µM)
- minimal inhibitory concentration (Candida albicans CBS.562; 48 hours): 50 µg/mL (≈ 156 µM)
- MIC (Candida albicans CBS.562; CBS.562, 24 h, 24 hours): 75 µg/mL (≈ 233 µM)
- MIC (Candida albicans CBS.562; CBS.562, 48 h, 48 hours): 100 µg/mL (≈ 311 µM)
- activity against Verticillium albo-atrum (Verticillium albo-atrum): active
- MIC ([5]; 72 hours): 50 µg/mL (≈ 156 µM)
- MIC ([5]; 144 hours): 75 µg/mL (≈ 233 µM)
- MIC ([5]; 288 hours): 75 µg/mL (≈ 233 µM)
- minimal inhibitory concentration ([6]; 72 hours): 75 µg/mL (≈ 233 µM)
- minimal inhibitory concentration ([6]; 144 hours): 150 µg/mL (≈ 467 µM)
- minimal inhibitory concentration ([6]; 288 hours): 150 µg/mL (≈ 467 µM)
- MIC ([6]; CCM.F330, 72 h, 72 hours): 150 µg/mL (≈ 467 µM)
- MIC ([6]; CCM.F330, 144 h, 144 hours): 200 µg/mL (≈ 622 µM)
- MIC ([6]; CCM.F330, 288 h, 288 hours): 250 µg/mL (≈ 778 µM)
- minimal inhibitory concentration ([7]; 144 hours): 150 µg/mL (≈ 467 µM)
- MIC ([7]; CCM.F362, 72 h, 72 hours): 75 µg/mL (≈ 233 µM)
- MIC ([7]; CCM.F362, 144 h, 144 hours): 200 µg/mL (≈ 622 µM)
- MIC ([7]; CCM.F362, 288 h, 288 hours): 200 µg/mL (≈ 622 µM)
- activity against Venturia (Venturia): active
- activity against Botrytis cinerea (Botrytis cinerea): active
- minimal inhibitory concentration ([8]; 24 hours): 75 µg/mL (≈ 233 µM)
- minimal inhibitory concentration ([8]; 48 hours): 75 µg/mL (≈ 233 µM)
- MIC ([8]; CBS.433, 24 h, 24 hours): 150 µg/mL (≈ 467 µM)
- MIC ([8]; CBS.433, 48 h, 48 hours): 150 µg/mL (≈ 467 µM)
- MIC ([9]; 24 h): 25 µg/mL (≈ 77.8 µM)
- MIC ([9]; 48 h): 25 µg/mL (≈ 77.8 µM)
- activity against Cercospora beticola (Cercospora beticola): active
- activity against Ascochyta pisi (Ascochyta pisi): active
- activity against Sclerotinia sclerotiorum (Sclerotinia sclerotiorum): active
- minimal inhibitory concentration [10]: 100 µg/mL (≈ 311 µM)
- MIC ([10]; Sporotrichum, CBS.34035, 288 h): 50 µg/mL (≈ 156 µM)
- minimal inhibitory concentration ([11]; 288 hours): 150 µg/mL (≈ 467 µM)
- MIC ([11]; CBS.19646, 72 h, 72 hours): 50 µg/mL (≈ 156 µM)
- MIC ([11]; CBS.19646, 144 h, 144 hours): 75 µg/mL (≈ 233 µM)
- MIC ([11]; CBS.19646, 288 h, 288 hours): 75 µg/mL (≈ 233 µM)
- minimal inhibitory concentration ([12]; 24 hours): 75 µg/mL (≈ 233 µM)
- minimal inhibitory concentration ([12]; 48 hours): 75 µg/mL (≈ 233 µM)
- MIC ([12]; OKI.1282, 24 h, 24 hours): 50 µg/mL (≈ 156 µM)
- MIC ([12]; OKI.1282, 48 h, 48 hours): 50 µg/mL (≈ 156 µM)
- minimal inhibitory concentration ([13]; 288 hours): 200 µg/mL (≈ 622 µM)
- MIC ([13]; CBS.11326, 72 h, 72 hours): 50 µg/mL (≈ 156 µM)
- MIC ([13]; CBS.11326, 144 h, 144 hours): 150 µg/mL (≈ 467 µM)
- MIC ([13]; CBS.11326, 288 h, 288 hours): 150 µg/mL (≈ 467 µM)
- minimal inhibitory concentration ([14]; 288 hours): 50 µg/mL (≈ 156 µM)
- MIC ([14]; CBS.31948, 72 h, 72 hours): 10 µg/mL (≈ 31.1 µM)
- MIC ([14]; CBS.31948, 144 h, 144 hours): 25 µg/mL (≈ 77.8 µM)
- MIC ([14]; CBS.31948, 288 h, 288 hours): 25 µg/mL (≈ 77.8 µM)
- activity against Taphrina deformans (Taphrina deformans): active
- minimal inhibitory concentration ([15]; 144 hours): 2.5 µg/mL (≈ 7.78 µM)
- minimal inhibitory concentration ([15]; 288 hours): 10 µg/mL (≈ 31.1 µM)
- MIC ([15]; 144 h, read-out: minimal inhibitory concentration): 5 µg/mL (≈ 15.6 µM)
- MIC ([15]; 288 h, read-out: minimal inhibitory concentration): 5 µg/mL (≈ 15.6 µM)
- MIC ([15]; read-out: Minimal inhibitory concentration inhibiting the growth): 1 µg/mL (≈ 3.11 µM)
- activity against Phytophtora infestans (Phytophtora infestans): active
- activity against Verticillium dahlise (Verticillium dahlise): active
- MIC [16]: 10 µg/mL (≈ 31.1 µM)
- minimal inhibitory concentration ([17]; 72 hours): 75 µg/mL (≈ 233 µM)
- minimal inhibitory concentration ([17]; 144 hours): 150 µg/mL (≈ 467 µM)
- minimal inhibitory concentration ([17]; 288 hours): 200 µg/mL (≈ 622 µM)
- MIC ([17]; CBS.24765, 72 h, 72 hours): 100 µg/mL (≈ 311 µM)
- MIC ([17]; CBS.24765, 144 h, 144 hours): 200 µg/mL (≈ 622 µM)
- MIC ([17]; CBS.24765, 288 h, 288 hours): 250 µg/mL (≈ 778 µM)
- minimal inhibitory concentration ([18]; 72 hours): 2.5 µg/mL (≈ 7.78 µM)
- MIC ([18]; CBS.50148, 72 h, 72 hours, read-out: minimal inhibitory concentration): 5 µg/mL (≈ 15.6 µM)
- MIC ([18]; CBS.50148, 144 h, 144 hours, read-out: minimal inhibitory concentration): 10 µg/mL (≈ 31.1 µM)
- MIC ([18]; CBS.50148, read-out: Minimal inhibitory concentration inhibiting the growth): 2.5 µg/mL (≈ 7.78 µM)
- minimal inhibitory concentration ([19]; 288 hours): 50 µg/mL (≈ 156 µM)
- MIC ([19]; CCM.F382, 144 h, 144 hours): 50 µg/mL (≈ 156 µM)
- MIC ([19]; CCM.F382, 288 h, 288 hours): 75 µg/mL (≈ 233 µM)
- MIC (Candida krusei 79/K47; 79/K47, 24 h): 10 µg/mL (≈ 31.1 µM)
- MIC (Candida krusei 79/K47; 79/K47, 48 h): 10 µg/mL (≈ 31.1 µM)
- MIC ([20]; CBS.12648, 72 h, 72 hours): 75 µg/mL (≈ 233 µM)
- MIC ([20]; CBS.12648, 144 h, 144 hours): 150 µg/mL (≈ 467 µM)
- MIC ([20]; CBS.12648, 288 h, 288 hours): 150 µg/mL (≈ 467 µM)
